Assay: Sodium perborate stabilization in wash liquors (bleaching of grape juice stained swatches)
Details: 5.2×10^-5 mol/l stabilizer; sodium perborate-monohydrate 0.8 g/l; 50° C., 15 minutes; pH 10.3; Fe^III, Cu^II, Mn^II
Method: The efficiency of the bleaching action of a laundry detergent containing the stabilizers of the invention was measured by washing white poly-cotton fabric swatches previously stained with grape juice. The test was carried out using the following detergent formulation: […]
Sodium Dodecyl Benzene Sulfonate
Grape juice stained, poly-cotton fabric swatches purchased from Scientific Services, Oakland, N.J., were washed in a Tergitometer at 50° C. for 15 minutes in a wash solution containing sodium perborate-monohydrate 0.8 g/l; 4.0 g/l of the zeolite-based detergent as described above; 100 ppm Hardness (3:1 Ca:Mg); 2 ppm Fe^III; 1 ppm Cu^II; and 1 ppm Mn^II (from AA standards); and 5.2×10^-5 mol/l stabilizer. The pH of the wash solution was 10.3. The swatches were then rinsed for 5 minutes in 25° C. water and air dried.
The efficiency of the bleaching action was determined by measuring the brightness (ΔE) of the swatches and the percentage of soil removed from the swatches.
ΔE was calculated in accordance with ASTM E 308-66(81) standards, using the following formula: [formula] wherein L=Lightness 0 black, 100 white a=Redness if +, Greenness if -, Gray is 0 b=Yellow if +, Blue if -, Gray is 0
Δ measurements are before and after washing
Percent stain removal was calculated in duplicate in accordance with ASTM D3050-75 standards, using the following formula: [formula] where D=reflectance by detergent head with green filter (brightness).

Structure (SMILES)	ΔE (brightness of the swatches)
O=C(O)CC(C(=O)O)N(CC(=O)O)CC(=O)O (stereo not drawn) [AspDA, Aspartic acidN,N-diacetic acid]	93.9
O=C(O)CNC(CC(=O)O)C(=O)O (stereo not drawn) [AspMA, Aspartic acidN-monoacetic acid]	87.6
O=C(O)CCN(CC(=O)O)CC(=O)O [BADA]	98.0
O=C(O)CSC(CC(=O)O)C(=O)O (stereo not drawn) [CMMS, Carboxymethylmercaptosuccinic acid]	102.3
O=C(O)CN(CCN(CC(=O)O)CC(=O)O)CC(=O)O [EDTA, Ethylenediaminetetraacetic acid, reference compound]	86.2
O=C(O)CC(NC(CC(=O)O)C(=O)O)C(=O)O (stereo not drawn) [ISA, Iminodisuccinic acid]	92.7

Same assay, conditions: 5.2×10^-5 mol/l stabilizer; sodium perborate-monohydrate 0.8 g/l; 50° C., 15 minutes; pH 10.3; in duplicate

Structure (SMILES)	% Stain Removal
O=C(O)CC(C(=O)O)N(CC(=O)O)CC(=O)O (stereo not drawn) [AspDA, Aspartic acidN,N-diacetic acid]	83.7%
O=C(O)CNC(CC(=O)O)C(=O)O (stereo not drawn) [AspMA, Aspartic acidN-monoacetic acid]	84.4%
O=C(O)CCN(CC(=O)O)CC(=O)O [BADA]	83.3%
O=C(O)CSC(CC(=O)O)C(=O)O (stereo not drawn) [CMMS, Carboxymethylmercaptosuccinic acid]	84.5%
O=C(O)CN(CCN(CC(=O)O)CC(=O)O)CC(=O)O [EDTA, Ethylenediaminetetraacetic acid, reference compound]	79.7%
O=C(O)CC(NC(CC(=O)O)C(=O)O)C(=O)O (stereo not drawn) [ISA, Iminodisuccinic acid]	81.4%

Assay: not given
Details: conventional tests; cited from earlier work

Structure (SMILES)	biodegradability
O=C(O)CN(CCN(CC(=O)O)CC(=O)O)CC(=O)O [EDTA, Ethylenediaminetetraacetic acid, reference compound]	insufficiently biodegradable
O=C(O)CN(CC(=O)O)CC(O)CN(CC(=O)O)CC(=O)O [HPDTA, hydroxypropylenediaminetetraacetic acid]	insufficiently biodegradable
CC(CN(CC(=O)O)CC(=O)O)N(CC(=O)O)CC(=O)O (stereo not drawn) [PDTA, propylenediaminetetraacetic acid]	insufficiently biodegradable

Assay: Perborate stabilization in the presence of Cu ions (peroxide remaining after hot storage, iodine/starch titration)
Details: 4.7×10^-8 mols Cu^II; 4.2×10^-7 mols stabilizer in 100 ml; pH 10.1; 70° C.
Method: (§1) The hydrogen peroxide responsible for the bleaching action in sodium perborate based laundry detergents is decomposed catalytically by transition metal ions such as Mn^II and Cu^II. This degradation can be prevented by complexing the metal ions.
(§2) The peroxide stabilizing effect of stabilizers in accordance with the invention was tested by measuring the peroxide present before and after storage in a hot aqueous solution which contains copper or manganese ions.
(§3) A solution of 0.2 g (2×10^-3 mols) sodium perborate monohydrate; 10.0 ml of hardness standard (3:1 CaCl2 :MgCl2, 1×10^-6 mols total); 3.0 ml of metal standard (5.4×10^-8 mol Mn^II or 4.7×10^-8 mols Cu^II); and 2.0 ml stabilizer solution (4.2×10^-7 mols stabilizer) was diluted to 100 ml with distilled water. The pH was adjusted to 10.1 and the solution was stirred at 70° C. for 20 minutes. Ten ml aliquots of the solution were tested after 10 minutes by first neutralizing the solution with sulfuric acid and then titrating with iodine and starch.
(§4) The percentage of peroxide remaining after storage was determined using a starch/iodine titration procedure.

Structure (SMILES)	Stability in Presence of Cu^+2 Ions, % Remaining
O=C(O)CC(C(=O)O)N(CC(=O)O)CC(=O)O (stereo not drawn) [AspDA, Aspartic acidN,N-diacetic acid]	28.6%
O=C(O)CCN(CC(=O)O)CC(=O)O [BADA]	50.4%
O=C(O)CSC(CC(=O)O)C(=O)O (stereo not drawn) [CMMS, Carboxymethylmercaptosuccinic acid]	31.3%
O=C(O)CN(CCN(CC(=O)O)CC(=O)O)CC(=O)O [EDTA, Ethylenediaminetetraacetic acid, reference compound]	82.8%
O=C(O)CC(NC(CC(=O)O)C(=O)O)C(=O)O (stereo not drawn) [ISA, Iminodisuccinic acid]	79.0%

Same assay, conditions: pH 10.1

Structure (SMILES)	Stability in Presence of Cu^+2 Ions, % Remaining
O=C(O)CNC(CC(=O)O)C(=O)O (stereo not drawn) [AspMA, Aspartic acidN-monoacetic acid]	0.0%

Assay: Perborate stabilization in the presence of Mn ions (peroxide remaining after hot storage, iodine/starch titration)
Details: 5.4×10^-8 mol Mn^II; 4.2×10^-7 mols stabilizer in 100 ml; pH 10.1; 70° C.
Method: as §1, §2, §3, §4

Structure (SMILES)	Stability in Presence of Mn^2 Ions, % Remaining
O=C(O)CC(C(=O)O)N(CC(=O)O)CC(=O)O (stereo not drawn) [AspDA, Aspartic acidN,N-diacetic acid]	25.6%
O=C(O)CCN(CC(=O)O)CC(=O)O [BADA]	45.0%
O=C(O)CSC(CC(=O)O)C(=O)O (stereo not drawn) [CMMS, Carboxymethylmercaptosuccinic acid]	54.5%
O=C(O)CN(CCN(CC(=O)O)CC(=O)O)CC(=O)O [EDTA, Ethylenediaminetetraacetic acid, reference compound]	87.5%
O=C(O)CC(NC(CC(=O)O)C(=O)O)C(=O)O (stereo not drawn) [ISA, Iminodisuccinic acid]	13.6%

Same assay, conditions: pH 10.1

Structure (SMILES)	Stability in Presence of Mn^2 Ions, % Remaining
O=C(O)CNC(CC(=O)O)C(=O)O (stereo not drawn) [AspMA, Aspartic acidN-monoacetic acid]	21.5%

From patent US5362412A, “Biodegradable bleach stabilizers for detergents” (priority 1991, dated 1994)
